The source of these data is patent publication US20260022142A1, “MACROCYCLIC IMMUNOMODULATORS” (Bristol-Myers Squibb Company, priority 2022, published 2026).

Each structure is given as a SMILES string. Numbered stars: 1 amine (or outer) side, 2 acyl side, 3 side chain; on linkers, the order of the positions; unused ones are H or OH. Bridge positions count the residues as written; N and C are the ends. Square brackets hold non-standard residues; d marks the D form. Peptide text beside a SMILES is read from it. * marks the point of attachment. ξ: configuration not given here. Phe(3-CF3) = N[C@@H](Cc1cccc(C(F)(F)F)c1)C(=O)O; Ala(morpholin-4-yl) = N[C@@H](CN1CCOCC1)C(=O)O; Phe(4-COOH) = N[C@@H](Cc1ccc(C(=O)O)cc1)C(=O)O; Bip = N[C@@H](Cc1ccc(-c2ccccc2)cc1)C(=O)O; Phe(3-Me) = Cc1cccc(C[C@H](N)C(=O)O)c1; βAsp = O=C(O)[C@H](CC(=O)[*:2])N[*:1]; NH(CH2)12COOH = O=C(O)CCCCCCCCCCCCN*; Val(3-OH) = CC(C)(O)[C@H](N)C(=O)O; hArg = N=C(N)NCCCC[C@H](N)C(=O)O; Cha = N[C@@H](CC1CCCCC1)C(=O)O; Cit = NC(=O)NCCC[C@H](N)C(=O)O; Thr(3ξ) = CC(O)[C@H](N)C(=O)O; Carboxymethyl = O=C(O)C*; Orn = NCCC[C@H](N)C(=O)O; Aun = NCCCCCCCCCCC(=O)O; Dab = NCC[C@H](N)C(=O)O; Dap = NC[C@H](N)C(=O)O; AEEA = NCCOCCOCC(=O)O; ξC = NC(CS)C(=O)O

The target in this assay is T1, PD-1/PD-L1 interaction (PE-labeled human PD-L1-Ig binding to Jurkat cell line over-expressing human PD-1) (Homo sapiens, UniProt Q15116).
T1 construct: expressed in transfected cells; host or cells: Jurkat
T1 sequence (Q15116 25-288): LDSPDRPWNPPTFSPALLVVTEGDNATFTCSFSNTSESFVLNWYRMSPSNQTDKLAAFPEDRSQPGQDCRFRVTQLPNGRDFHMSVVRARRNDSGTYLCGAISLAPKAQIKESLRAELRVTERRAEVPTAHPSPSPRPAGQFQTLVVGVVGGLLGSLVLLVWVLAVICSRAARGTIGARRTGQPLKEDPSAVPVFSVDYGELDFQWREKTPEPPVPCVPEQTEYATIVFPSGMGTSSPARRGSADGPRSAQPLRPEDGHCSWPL
The experiment in a line: Jurkat-PD-1 Cell Binding High-Content Screening Assay (CBA). In kind it is cell-based. The conditions noted are these: Jurkat cell line over-expressing human PD-1; PE-labeled PD-L1-Ig 20 nM final; read-out: Jurkat hPD1-PDL1 IC50. The method in brief: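 First, compound is added to PD-1-expressing Jurkat cells in serum-containing DMEM and left 2 h at 37° C. Next, PE-conjugated PD-L1-Ig is introduced at 20 nM final concentration for 1 hour. Finally, cells are fixed in 4% paraformaldehyde with Hoechst 33342, washed and imaged.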
The IC50 is the point on the concentration scale where inhibition reaches its midpoint. With `Cc1cccc(C[C@@H]2NC(=O)[C@H](CC(=O)O)NC(=O)[C@H](Cc3ccc(OCC(=O)O)cc3)NC(=O)[C@H](Cc3ccc(O)cc3)NC(=O)CSC[C@@H](C(=O)N[C@@H](CCN)C(=O)NCCCCCCCCCCC(=O)O)NC(=O)[C@H]([C@@H](C)O)NC(=O)[C@H](C(C)C)NC(=O)[C@H](CC3CCCCC3)NC(=O)[C@H](CCN)NC(=O)[C@@H](CC(C)C)NC(=O)[C@H](CCCN)NC(=O)[C@H](CCCNC(N)=O)NC(=O)[C@H](Cc3ccc(-c4ccccc4)cc3)NC(=O)[C@H](C(C)C)NC2=O)c1` [Compound 2826] ({CH2CO}-YY(Carboxymethyl)D[Phe(3-Me)]V[Bip][Cit][Orn][dL][Dab][Cha]VTC[Dab][Aun]-OH; thioether N-14), the IC50 amounted to 62.2 nM.
For the compound `Cc1cccc(C[C@@H]2NC(=O)[C@H](CC(=O)O)NC(=O)[C@H](Cc3ccc(OCC(=O)O)cc3)NC(=O)[C@H]([C@@H](C)O)NC(=O)CSC[C@@H](C(=O)N[C@@H](CCCCN)C(=O)NCCCCCCCCCCC(=O)O)NC(=O)[C@H]([C@@H](C)O)NC(=O)[C@H](C(C)C)NC(=O)[C@H](CC3CCCCC3)NC(=O)[C@H](CCN)NC(=O)[C@@H](CC(C)C)NC(=O)[C@H](CCCN)NC(=O)[C@H](Cc3ccc(OCC(=O)O)cc3)NC(=O)[C@H](Cc3ccc(-c4ccccc4)cc3)NC(=O)[C@H](Cc3ccc(C(=O)O)cc3)NC2=O)c1` [Compound 1303] ({CH2CO}-TY(Carboxymethyl)D[Phe(3-Me)][Phe(4-COOH)][Bip]Y(Carboxymethyl)[Orn][dL][Dab][Cha]VTCK[Aun]-OH; thioether N-14), the IC50 came out at 32.2 nM.
For the compound `Cc1cccc(C[C@@H]2NC(=O)[C@H](CC(=O)O)NC(=O)[C@H](Cc3ccc(OCC(=O)O)cc3)NC(=O)[C@H]([C@@H](C)O)NC(=O)CSC[C@@H](C(=O)N[C@@H](CCCCN)C(=O)NCCCCCCCCCCC(=O)O)NC(=O)[C@H]([C@@H](C)O)NC(=O)[C@H](C(C)C)NC(=O)[C@H](CC3CCCCC3)NC(=O)[C@H](CCN)NC(=O)[C@@H](CC(C)C)NC(=O)[C@H](CCCN)NC(=O)[C@H](Cc3ccc(OCC(=O)O)cc3)NC(=O)[C@H](Cc3ccc(-c4ccccc4)cc3)NC(=O)[C@H](Cc3ccc(OCC(=O)O)cc3)NC2=O)c1` [Compound 1293] ({CH2CO}-TY(Carboxymethyl)D[Phe(3-Me)]Y(Carboxymethyl)[Bip]Y(Carboxymethyl)[Orn][dL][Dab][Cha]VTCK[Aun]-OH; thioether N-14), the IC50 stood at 19.1 nM.
For the compound `CC(C)C[C@H]1NC(=O)[C@H](CCCN)NC(=O)[C@H](Cc2c[nH]cn2)NC(=O)[C@H](Cc2ccc(-c3ccccc3)cc2)NC(=O)[C@H](C(C)C)NC(=O)[C@H](Cc2c[nH]c3ccccc23)NC(=O)[C@H](CC(=O)O)NC(=O)[C@H](Cc2ccc(OCC(=O)O)cc2)NC(=O)[C@H](C(C)O)NC(=O)CSC[C@@H](C(=O)N[C@@H](CC(=O)NCCOCCOCC(=O)N[C@@H](CCCN)C(=O)NCCCCCCCCCCC(=O)O)C(=O)O)NC(=O)[C@H](CO)NC(=O)[C@H](C(C)C)NC(=O)[C@H](CC2CCCCC2)NC(=O)[C@H](CCN)NC1=O` (stereo partly drawn) [Compound 3056] ({CH2CO}-[Thr(3ξ)]Y(Carboxymethyl)DWV[Bip]H[Orn][dL][Dab][Cha]VSC[βAsp][AEEA][Orn][Aun]-OH; thioether N-14), the IC50 came to 17.7 nM.
With `Cc1cccc(C[C@@H]2NC(=O)[C@H](CC(=O)O)NC(=O)[C@H](Cc3ccc(OCC(=O)O)cc3)NC(=O)[C@H]([C@@H](C)O)NC(=O)CSC[C@@H](C(=O)N[C@@H](CCN)C(=O)NCCCCCCCCCCC(=O)O)NC(=O)[C@H]([C@@H](C)O)NC(=O)[C@H](C(C)C)NC(=O)[C@H](CC3CCCCC3)NC(=O)[C@H](CCN)NC(=O)[C@@H](CC(C)C)NC(=O)[C@H](CCCN)NC(=O)[C@H](Cc3ccc(O)cc3)NC(=O)[C@H](Cc3ccc(-c4ccccc4)cc3)NC(=O)[C@H](Cc3ccc(OCC(=O)O)cc3)NC2=O)c1` [Compound 2092] ({CH2CO}-TY(Carboxymethyl)D[Phe(3-Me)]Y(Carboxymethyl)[Bip]Y[Orn][dL][Dab][Cha]VTC[Dab][Aun]-OH; thioether N-14), the IC50 is 25.1 nM.
`CC(C)C[C@H]1NC(=O)[C@H](CCCN)NC(=O)[C@H](Cc2ccc(C(=O)O)cc2)NC(=O)[C@H](Cc2ccc(-c3ccccc3)cc2)NC(=O)[C@H](Cc2ccc(C(=O)O)cc2)NC(=O)[C@H](Cc2cccc(C(F)(F)F)c2)NC(=O)[C@H](CC(=O)O)NC(=O)[C@H](Cc2ccc(OCC(=O)O)cc2)NC(=O)[C@H](CN2CCOCC2)NC(=O)CSC[C@@H](C(=O)N[C@@H](CCN)C(=O)NCCCCCCCCCCCCC(=O)O)NC(=O)[C@H](CC(=O)O)NC(=O)[C@H](C(C)(C)O)NC(=O)[C@H](CC2CCCCC2)NC(=O)[C@H](CCN)NC1=O` [Compound 2921] ({CH2CO}-[Ala(morpholin-4-yl)]Y(Carboxymethyl)D[Phe(3-CF3)][Phe(4-COOH)][Bip][Phe(4-COOH)][Orn][dL][Dab][Cha][Val(3-OH)]DC[Dab]-{NH(CH2)12COOH}; thioether N-14): the IC50 amounted to 20.5 nM.
As for `CC(C)C[C@H]1NC(=O)[C@H](CCCN)NC(=O)[C@H](Cc2ccc(O)cc2)NC(=O)[C@H](Cc2ccc(-c3ccccc3)cc2)NC(=O)[C@H](Cc2ccc(O)cc2)NC(=O)[C@H](Cc2c[nH]c3ccccc23)NC(=O)[C@H](CC(=O)O)NC(=O)[C@H](Cc2ccc(OCC(=O)O)cc2)NC(=O)[C@H](Cc2ccc(OCC(=O)O)cc2)NC(=O)CSC[C@@H](C(=O)N[C@@H](CCN)C(=O)NCCOCCOCC(=O)NCCCCCCCCCCC(=O)O)NC(=O)[C@H](CCCNC(=N)N)NC(=O)[C@H](Cc2ccc(O)cc2)NC(=O)[C@H](CC2CCCCC2)NC(=O)[C@H](CCN)NC1=O` [Compound 2502] ({CH2CO}-Y(Carboxymethyl)Y(Carboxymethyl)DWY[Bip]Y[Orn][dL][Dab][Cha]YRC[Dab][AEEA][Aun]-OH; thioether N-14), the IC50 came out at 21.2 nM.
On to `CC(C)C[C@H]1NC(=O)[C@H](CCCN)NC(=O)[C@H](C(C)C)NC(=O)[C@H](Cc2ccc(-c3ccccc3)cc2)NC(=O)[C@H](C(C)C)NC(=O)[C@H](Cc2c[nH]c3ccccc23)NC(=O)[C@H](CC(=O)O)NC(=O)[C@H](Cc2ccc(OCC(=O)O)cc2)NC(=O)[C@H](CCCCNC(=N)N)NC(=O)CSC[C@@H](C(=O)N[C@@H](CCN)C(=O)NCCOCCOCC(=O)NCCCCCCCCCCC(=O)O)NC(=O)[C@H](CCCNC(N)=O)NC(=O)[C@H](C(C)C)NC(=O)[C@H](CC2CCCCC2)NC(=O)[C@H](CC(N)=O)NC1=O` [Compound 3213] ({CH2CO}-[hArg]Y(Carboxymethyl)DWV[Bip]V[Orn][dL]N[Cha]V[Cit]C[Dab][AEEA][Aun]-OH; thioether N-14), for which the IC50 came to 13.5 nM.
As for `CC(C)C[C@H]1NC(=O)[C@H](CCCN)NC(=O)[C@H](C(C)C)NC(=O)[C@H](Cc2ccc(-c3ccccc3)cc2)NC(=O)[C@H](C(C)C)NC(=O)[C@H](Cc2c[nH]c3ccccc23)NC(=O)[C@H](CC(=O)O)NC(=O)[C@H](Cc2ccc(OCC(=O)O)cc2)NC(=O)[C@H](CN)NC(=O)CSC[C@@H](C(=O)N[C@@H](CCN)C(=O)NCCCCCCCCCCC(=O)O)NC(=O)[C@H](CCCCN)NC(=O)[C@H](C(C)C)NC(=O)[C@H](CC2CCCCC2)NC(=O)[C@H](CCN)NC1=O` [Compound 2557] ({CH2CO}-[Dap]Y(Carboxymethyl)DWV[Bip]V[Orn][dL][Dab][Cha]VKC[Dab][Aun]-OH; thioether N-14), the IC50 is 12.1 nM.
For `Cc1cccc(C[C@@H]2NC(=O)[C@H](CC(=O)O)NC(=O)[C@H](Cc3ccc(OCC(=O)O)cc3)NC(=O)[C@H](CCCNC(=N)N)NC(=O)CSC[C@@H](C(=O)N[C@@H](CCN)C(=O)NCCCCCCCCCCC(=O)O)NC(=O)[C@H]([C@@H](C)O)NC(=O)[C@H](C(C)C)NC(=O)[C@H](CC3CCCCC3)NC(=O)[C@H](CCN)NC(=O)[C@@H](CC(C)C)NC(=O)[C@H](CCCN)NC(=O)[C@H](Cc3ccc(OCC(=O)O)cc3)NC(=O)[C@H](Cc3ccc(-c4ccccc4)cc3)NC(=O)[C@H](C(C)(C)O)NC2=O)c1` [Compound 2109] ({CH2CO}-RY(Carboxymethyl)D[Phe(3-Me)][Val(3-OH)][Bip]Y(Carboxymethyl)[Orn][dL][Dab][Cha]VTC[Dab][Aun]-OH; thioether N-14), the IC50 was determined as 22.2 nM.
With `Cc1cccc(C[C@@H]2NC(=O)[C@H](CC(=O)O)NC(=O)[C@H](Cc3ccc(OCC(=O)O)cc3)NC(=O)[C@H](CN)NC(=O)CSCC(C(=O)NCCOCCOCC(=O)NCCCCCCCCCCC(=O)O)NC(=O)[C@H](CN)NC(=O)[C@H](C(C)C)NC(=O)[C@H](CC3CCCCC3)NC(=O)[C@H](CCN)NC(=O)[C@@H](CC(C)C)NC(=O)[C@H](CCCN)NC(=O)[C@H](CCCNC(N)=O)NC(=O)[C@H](Cc3ccc(-c4ccccc4)cc3)NC(=O)[C@H](C(C)C)NC2=O)c1` (stereo partly drawn) [Compound 2645] ({CH2CO}-[Dap]Y(Carboxymethyl)D[Phe(3-Me)]V[Bip][Cit][Orn][dL][Dab][Cha]V[Dap][ξC][AEEA][Aun]-OH; thioether N-14), the 50% inhibitory concentration (IC50) was 15.4 nM.
As to `Cc1cccc(C[C@@H]2NC(=O)[C@H](CC(=O)O)NC(=O)[C@H](Cc3c[nH]cn3)NC(=O)[C@H](CCCNC(=N)N)NC(=O)CSC[C@@H](C(=O)N[C@@H](CCCCN)C(=O)NCCCCCCCCCCC(=O)O)NC(=O)[C@H](CCCN)NC(=O)[C@H](C(C)C)NC(=O)[C@H](CC3CCCCC3)NC(=O)[C@H](CCN)NC(=O)[C@@H](CC(C)C)NC(=O)[C@H](CCCN)NC(=O)[C@H](C(C)C)NC(=O)[C@H](Cc3ccc(-c4ccccc4)cc3)NC(=O)[C@H](C(C)C)NC2=O)c1` [Compound 3296] ({CH2CO}-RHD[Phe(3-Me)]V[Bip]V[Orn][dL][Dab][Cha]V[Orn]CK[Aun]-OH; thioether N-14), the IC50 was found to be 20.3 nM.
